Test results: the NIST ThermoML archive (doi:10.1021/acs.jced.7b00712)

Conditions: Fluid (supercritical or subcritical phases), Brillouin light scattering

CC(C)CC(C)(C)C [2,2,4-trimethylpentane]
Conditions	speed of sound [m/s]
543.74 K, 6000 kPa	314.4
544.07 K, 10000 kPa	409.3
544.08 K, 12000 kPa	448.4
547.77 K, 3000 kPa	135.2
548.38 K, 4000 kPa	216.1
548.79 K, 5000 kPa	262.4
548.93 K, 12000 kPa	439.8
548.94 K, 6000 kPa	301.9
549.02 K, 10000 kPa	399.6
552.48 K, 3000 kPa	103.8
553.35 K, 4000 kPa	194.1
553.8 K, 5000 kPa	247.6
553.96 K, 6000 kPa	286.4
554.24 K, 12000 kPa	430.8
554.27 K, 10000 kPa	392.6
558.01 K, 3000 kPa	97.9
558.52 K, 10000 kPa	386.7
558.54 K, 12000 kPa	426
559.12 K, 6000 kPa	272.8
559.16 K, 5000 kPa	232.4
559.18 K, 4000 kPa	172.1
563.28 K, 4000 kPa	154.4
564.27 K, 5000 kPa	214.5
564.68 K, 12000 kPa	415.3
564.81 K, 10000 kPa	374.5
564.85 K, 6000 kPa	257.3
567.24 K, 3000 kPa	109.9
568.08 K, 4000 kPa	137.3
569.24 K, 5000 kPa	201.2
569.81 K, 12000 kPa	404.7
570.06 K, 6000 kPa	244.3
570.54 K, 10000 kPa	362.4
570.76 K, 3000 kPa	112.7
573.32 K, 4000 kPa	122.1
574.23 K, 5000 kPa	187
574.7 K, 6000 kPa	233
574.8 K, 12000 kPa	398.5
575.07 K, 10000 kPa	354
576.9 K, 3000 kPa	117.3
578.09 K, 4000 kPa	114.9
579 K, 5000 kPa	173.2
579.62 K, 6000 kPa	222.1
580.26 K, 12000 kPa	388.5
580.32 K, 10000 kPa	343.6
582.97 K, 4000 kPa	114.7
583.34 K, 3000 kPa	121.9
584.13 K, 5000 kPa	161.6
584.82 K, 6000 kPa	208.9
585.19 K, 12000 kPa	379.7
585.35 K, 10000 kPa	337.5
586.96 K, 3000 kPa	125
587.1 K, 4000 kPa	116
588.18 K, 5000 kPa	151.1
588.98 K, 6000 kPa	199.3
589.39 K, 12000 kPa	374.8
589.65 K, 10000 kPa	331.2
592.49 K, 4000 kPa	117.9
592.79 K, 3000 kPa	130.8
593.39 K, 5000 kPa	140.6
594.09 K, 6000 kPa	191.7
594.93 K, 12000 kPa	363.8
595.15 K, 10000 kPa	318.7
597.57 K, 4000 kPa	119.2
597.98 K, 3000 kPa	136.1
598.54 K, 5000 kPa	135.1
599.18 K, 6000 kPa	184.6
600.35 K, 10000 kPa	311.6
600.58 K, 12000 kPa	356.1
602.34 K, 4000 kPa	121.2
602.56 K, 3000 kPa	141.1
603.22 K, 5000 kPa	132.5
604.02 K, 6000 kPa	175.1
604.68 K, 12000 kPa	350.2
605.01 K, 10000 kPa	304.3
607.09 K, 4000 kPa	124.3
607.67 K, 5000 kPa	131
607.97 K, 3000 kPa	145.8
608.43 K, 6000 kPa	167.7
609.5 K, 12000 kPa	342.6
609.62 K, 10000 kPa	295.9
612.44 K, 4000 kPa	129.9
612.74 K, 5000 kPa	131.9
613.31 K, 3000 kPa	150.4
613.49 K, 6000 kPa	164.3
614.69 K, 10000 kPa	286.8
614.9 K, 12000 kPa	336.6
617.81 K, 4000 kPa	134.8
618.08 K, 5000 kPa	135
618.6 K, 6000 kPa	159.9
618.84 K, 3000 kPa	154.9
619.6 K, 12000 kPa	329.3
619.8 K, 10000 kPa	281.3
622.75 K, 4000 kPa	139
622.82 K, 5000 kPa	137.2
623.43 K, 6000 kPa	156.1
623.75 K, 3000 kPa	159.5
624.61 K, 12000 kPa	321.5
624.7 K, 10000 kPa	276.4
627.69 K, 5000 kPa	141.2
628.07 K, 4000 kPa	145.5
628.11 K, 6000 kPa	153.4
629.13 K, 10000 kPa	269.4
629.2 K, 12000 kPa	316.9
629.42 K, 3000 kPa	164
631.25 K, 5000 kPa	143.4
631.51 K, 6000 kPa	156
632.19 K, 4000 kPa	148.1
633.71 K, 3000 kPa	166.1
